# Assay results: US20200222474A1, “COMPOSITIONS AND METHODS FOR INCREASING PHYTOCHEMICAL BIOAVAILABLITY AND BIOACTIVITY” (North Carolina State University, priority 2017, published 2020)
# Tested on: L. acidophilus NCFM
# Assay: RNA-seq transcriptional analysis of L. acidophilus NCFM growing on plant glycosides
# Assay type: cell-based, Lactobacillus acidophilus
# [1] = LBA0329 Putative cell division protein, COG D
# [2] = LBA0466 Hypothetical protein, COG C
# [3] = LBA0500 MSM operon repressor, COG K
# [4] = LBA0545 Hypothetical protein, COG L
# [5] = LBA0547 Putative site-specific recombinase, COG L
# [6] = LBA0573 Putative transcriptional regulator, COG K
# [7] = LBA0607 Putative transcriptional regulator, COG K
# [8] = LBA0672 Putative phosphate starvation inducible protein stress related, COG J
# [9] = LBA0753 Multi-drug-type permease, COG GEPR
# [10] = LBA0886 Sugar kinase-putative transcriptional regulator, COG KG
# [11] = LBA0887 Hypothetical protein, COG C
# [12] = LBA0897 Putative Cro-like protein, COG K
# [13] = LBA0910 L-lactate dehydrogenase, COG C
# [14] = LBA1021 Putative transcriptional regulator, COG K
# [15] = LBA1220 Pyridine mercuric reductase, COG C
# [16] = LBA1392 Mucus binding protein precursor Mub, COG J
# [17] = LBA1411 Fumarate reductase flavoprotein subunit, COG CS
# [18] = LBA1436 Glycerol uptake facilitator protein, COG G
# [19] = LBA1457 Galactose-1-epimerase, COG G
# [20] = LBA1458 Galactose-1-phosphate uridylyltransferase, COG G
# [21] = LBA1462 Beta-galactosidase, COG G
# [22] = LBA1463 Lactose permease, COG G
# [23] = LBA1465 Transcription repressor of beta-galactosidasegene, COG K
# [24] = LBA1467 Beta-galactosidase large subunit (lactase), COG G
# [25] = LBA1468 Beta-galactosidase small subunit, COG G
compound,measurement,setting,value
N#C[C@H](O[C@@H]1O[C@H](CO[C@@H]2O[C@H](CO)[C@@H](O)[C@H](O)[C@H]2O)[C@@H](O)[C@H](O)[C@H]1O)c1ccccc1 [Amygdalin],Log2 differential normalized TPM ratio compared to glucose,"LBA0016 Fructokinase, COG KG",2.4
same,Log2 differential normalized TPM ratio compared to lactose,"LBA0016 Fructokinase, COG KG",1.2
same,Transcripts per million (rpm),"LBA0016 Fructokinase, COG KG",387.4 rpm
same,Log2 differential normalized TPM ratio compared to glucose,[1],−0.1
same,Log2 differential normalized TPM ratio compared to lactose,[1],−0.5
same,Transcripts per million (rpm),[1],12.3 rpm
same,Log2 differential normalized TPM ratio compared to glucose,[2],5.2
same,Log2 differential normalized TPM ratio compared to lactose,[2],3.7
same,Transcripts per million (rpm),[2],2769.5 rpm
same,Log2 differential normalized TPM ratio compared to glucose,[3],2
same,Log2 differential normalized TPM ratio compared to lactose,[3],0.4
same,Transcripts per million (rpm),[3],169.5 rpm
same,Log2 differential normalized TPM ratio compared to glucose,[4],2
same,Log2 differential normalized TPM ratio compared to lactose,[4],0
same,Transcripts per million (rpm),[4],244.7 rpm
same,Log2 differential normalized TPM ratio compared to glucose,[5],1.5
same,Log2 differential normalized TPM ratio compared to lactose,[5],−0.3
same,Transcripts per million (rpm),[5],24.9 rpm
same,Log2 differential normalized TPM ratio compared to glucose,[6],−1.5
same,Log2 differential normalized TPM ratio compared to lactose,[6],−1.6
same,Transcripts per million (rpm),[6],26.5 rpm
same,Log2 differential normalized TPM ratio compared to glucose,[7],2.7
same,Log2 differential normalized TPM ratio compared to lactose,[7],2.2
same,Transcripts per million (rpm),[7],252.9 rpm
same,Log2 differential normalized TPM ratio compared to glucose,[8],2.7
same,Log2 differential normalized TPM ratio compared to lactose,[8],1.9
same,Transcripts per million (rpm),[8],8689.6 rpm
same,Log2 differential normalized TPM ratio compared to glucose,[9],−0.6
same,Log2 differential normalized TPM ratio compared to lactose,[9],0.1
same,Transcripts per million (rpm),[9],26.1 rpm
same,Log2 differential normalized TPM ratio compared to glucose,[10],2.2
same,Log2 differential normalized TPM ratio compared to lactose,[10],2
same,Transcripts per million (rpm),[10],25.1 rpm
same,Log2 differential normalized TPM ratio compared to glucose,[11],2.4
same,Log2 differential normalized TPM ratio compared to lactose,[11],1.2
same,Transcripts per million (rpm),[11],247 rpm
same,Log2 differential normalized TPM ratio compared to glucose,[12],−2.3
same,Log2 differential normalized TPM ratio compared to lactose,[12],0.2
same,Transcripts per million (rpm),[12],0.4 rpm
same,Log2 differential normalized TPM ratio compared to glucose,[13],3.9
same,Log2 differential normalized TPM ratio compared to lactose,[13],2.9
same,Transcripts per million (rpm),[13],1594.3 rpm
same,Log2 differential normalized TPM ratio compared to glucose,[14],−1.2
same,Log2 differential normalized TPM ratio compared to lactose,[14],−1.5
same,Transcripts per million (rpm),[14],52.4 rpm
same,Log2 differential normalized TPM ratio compared to glucose,[15],1.2
same,Log2 differential normalized TPM ratio compared to lactose,[15],0.2
same,Transcripts per million (rpm),[15],377.5 rpm
same,Log2 differential normalized TPM ratio compared to glucose,[16],0.8
same,Log2 differential normalized TPM ratio compared to lactose,[16],1.1
same,Transcripts per million (rpm),[16],148.6 rpm
same,Log2 differential normalized TPM ratio compared to glucose,[17],4
same,Log2 differential normalized TPM ratio compared to lactose,[17],2.9
same,Transcripts per million (rpm),[17],28.7 rpm
same,Log2 differential normalized TPM ratio compared to glucose,[18],7.2
same,Log2 differential normalized TPM ratio compared to lactose,[18],3.5
same,Transcripts per million (rpm),[18],328.8 rpm
same,Log2 differential normalized TPM ratio compared to glucose,[19],2.6
same,Log2 differential normalized TPM ratio compared to lactose,[19],−3
same,Transcripts per million (rpm),[19],74.9 rpm
same,Log2 differential normalized TPM ratio compared to glucose,[20],2.8
same,Log2 differential normalized TPM ratio compared to lactose,[20],−2.9
same,Transcripts per million (rpm),[20],74 rpm
same,Log2 differential normalized TPM ratio compared to glucose,"LBA1459 Galactokinase, COG G",1.8
same,Log2 differential normalized TPM ratio compared to lactose,"LBA1459 Galactokinase, COG G",−2.8
same,Transcripts per million (rpm),"LBA1459 Galactokinase, COG G",70.3 rpm
same,Log2 differential normalized TPM ratio compared to glucose,[21],−0.5
same,Log2 differential normalized TPM ratio compared to lactose,[21],−6.5
same,Transcripts per million (rpm),[21],10.2 rpm
same,Log2 differential normalized TPM ratio compared to glucose,[22],0.2
same,Log2 differential normalized TPM ratio compared to lactose,[22],−4.5
same,Transcripts per million (rpm),[22],50.7 rpm
same,Log2 differential normalized TPM ratio compared to glucose,"LBA1464 Transposase, COG L",−0.1
same,Log2 differential normalized TPM ratio compared to lactose,"LBA1464 Transposase, COG L",−2.5
same,Transcripts per million (rpm),"LBA1464 Transposase, COG L",133.1 rpm
same,Log2 differential normalized TPM ratio compared to glucose,[23],−0.1
same,Log2 differential normalized TPM ratio compared to lactose,[23],−3.2
same,Transcripts per million (rpm),[23],43.7 rpm
same,Log2 differential normalized TPM ratio compared to glucose,[24],3.3
same,Log2 differential normalized TPM ratio compared to lactose,[24],−5.5
same,Transcripts per million (rpm),[24],42.2 rpm
same,Log2 differential normalized TPM ratio compared to glucose,[25],1.8
same,Log2 differential normalized TPM ratio compared to lactose,[25],−4.6
